Results: patent publication US20110098296A1, “Thiazole And Oxazole Kinase Inhibitors” (priority 2007, published 2011)

What was measured:
ErbB2 = biological target: T1, ErbB2 (Homo sapiens, UniProt P04626); assay: ErbB-2 substrate phosphorylation assay (HTRF); type: biochemical
T1 construct: made in house; host or cells: baculovirus expression system
In short: (§1)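 Baculovirus-expressed kinase (0.8 nM EGFR or 10 nM ErbB2 in enzyme mix) with Peptide C 0.8 μM and ATP 20 μM (substrate-mix levels), MOPS pH 7.5, MnCl2; 90 min, 20 °C, HTRF anti-phosphotyrosine. Method A adds 1 h enzyme–compound preincubation; B none. pIC50, final compound 0.00027–47.6 μM.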

SK-MEL-28 tumor cells = assay: Method C: Cell Growth Inhibition Assay (CellTiter-Glo), SK-MEL-28; type: cell-based; conditions: Homo sapiens, SK-MEL-28, 72 h, 3 days, 4-parameter fit
In short: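 Cells plated at 500 cells/well, dosed next day with 10-point 1:3 dilution series (0.2% final DMSO) and grown 3 days at 37 °C, 5% CO2. CellTiter-Glo luminescence (total ATP) served as cell-number surrogate; inhibition relative to DMSO controls, IC50 interpolated by 4-parameter fit.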

B-Raf = B-Raf (Homo sapiens, UniProt P15056); assay: B-Raf Accelerated MEK ATPase assay (BRAMA); type: biochemical; conditions: Method (A): BRAMA, kinetic read
Protocol: Compounds of the present invention were tested for B-Raf protein serine kinase inhibitory activity in a B-Raf Accelerated MEK ATPase assay (BRAMA). The BRAMA assay is a high sensitivity assay which measures an intrinsic MEK-mediated ATP hydrolysis uncoupled from downstream ERK phosphorylation by coupling the formation of ADP to NADH oxidation through the enzymes pyruvate kinase and lactate dehydrogenase. When ADP production is initiated by addition of catalytic amounts of an activated Raf enzyme and non-phosphorylated MEK, one observes robust ADP production concomitant with Raf-mediated phosphorylation of MEK.
Method A: Specific details of the assay are disclosed in: C. Rominger, M. Schaber, E. May. Assay for B-Raf Activity Based on Intrinsic MEK ATPase Activity. Statutory Invention Registration Ser. No. 11/084,993 (March, 2005). Method B: The method is the same as method A, but includes the following changes: 1) the assay was performed with a final MEK concentration of 150 nM and 2) the assay was read as single end point instead of a kinetic read.

EGFR = biological target: T2, EGFR (Homo sapiens, UniProt P00533); assay: EGFR substrate phosphorylation assay (HTRF); type: biochemical
T2 construct: made in house; host or cells: baculovirus expression system
In short: as §1

Colo205 tumor cells [1] = assay: Method C: Cell Growth Inhibition Assay (CellTiter-Glo), Colo205; type: cell-based; conditions: Homo sapiens, COLO 205, 72 h, 3 days, 4-parameter fit
In short: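 Growth inhibition is expressed as the concentration giving 50% inhibition relative to vehicle controls, derived from a 4-parameter fit. Tumor cells plated at 500 per well were exposed for 3 days to compound (0.2% DMSO) before total ATP was quantified by CellTiter-Glo.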

Colo205 tumor cells [2] = assay: Method B: CellTiter-Glo Growth Inhibition Assay, Colo205; type: cell-based; conditions: Homo sapiens, COLO 205, 72 h, 3 days
Protocol: (§2) Human breast tumor cells (BT474) were cultured in RPMI, (Invitrogen, 22400) containing 10% fetal bovine serum (FBS). Human head and neck tumor cells (HN5) were cultured in low glucose DMEM (Invitrogen, 12320) containing 10% FBS. Human colon tumor cells (Colo205) were cultured in DMEM (Invitrogen, 10564) containing 10% FBS. Human melanoma cancer cells (SK-MEL-28) were incubated in DMEM (Invitrogen). All cell lines were maintained at 37° C. in a humidified 5% CO2, 95% air incubator. Cells were harvested using trypsin/EDTA, counted using a haemocytometer, and plated in 30 μL of the appropriate media described above, at the following densities, in a half-area, black-walled, 96-well tissue culture plate (Corning 3882): BT474 3,000 cells/well, HN5 500 cells/well, Colo205 3,000 cells/well, and SK-MEL-28 500 cells/well). The next day, compounds were diluted in DMEM containing […] gentamicin, from 10 mM stock solutions in DMSO. 30 μL/well of these dilutions were added to the 30 μL/well of media currently on the cell plates. Medium containing 0.6% DMSO was added to control wells. The final concentration of DMSO in all wells was 0.3%. Cells were incubated at 37° C., 5% CO2 for 3 days. Cell biomass was estimated using CellTiter-Glo® reagent (Promega G7571). Briefly, plates were removed from the incubator and allowed to equilibrate to rt for 30 minutes. 25-60 μL of CellTiter-Glo® reagent were added to each well of the treated cells and plates were shaken on an orbital plate shaker for 2 mins. Plates were incubated without shaking for 30 more mins and read in a luminometer with an integration time of 0.5 seconds per well. Percent inhibition of cell growth was calculated relative to vehicle-treated control wells. Concentration of compound that inhibits 50% of vehicle control cell growth (IC50) was interpolated using nonlinear regression (Levenberg-Marquardt) and the equation, y=V max*(1−(x/(K+x)))+Y2, where “K” was equal to the IC50.

BT474 tumor cells [3] = assay: Method B: CellTiter-Glo Growth Inhibition Assay, BT474; type: cell-based; conditions: Homo sapiens, BT-474, 72 h, 3 days
Protocol: as §2

HN5 tumor cells [4] = assay: Method B: CellTiter-Glo Growth Inhibition Assay, HN5; type: cell-based; conditions: Homo sapiens, 72 h, 3 days
Protocol: as §2

BT474 tumor cells [5] = assay: Method A: Methylene Blue Growth Inhibition Assay, BT474; type: cell-based; conditions: Homo sapiens, BT-474, 72 h, 3 days
Protocol: (§3) Human breast (BT474) and head and neck (HN5) tumor cells were cultured in low glucose DMEM (Life Technologies 12320-032) containing 10% fetal bovine serum (FBS). Human colon tumor cells (Colo205) were cultured in DMEM (Invitrogen, 10564) containing 10% FBS. The SV40 transformed human mammary epithelial cell line HB4a was transfected with either human H-ras cDNA (HB4a r4.2) or the human c-ErbB2 cDNA (HB4a c5.2). The HB4a clones were cultured in RPMI containing 10% FBS, insulin (5 g/mL), hydrocortisone (5 g/mL), supplemented with the selection agent hygromycin B (50 g/mL). All lines were grown in a humidified incubator at 37° C. in 95% air, 5% CO2. Cells were harvested using trypsin/EDTA, counted using a haemocytometer, and plated in 100 μL of the appropriate media, at the following densities, in a 96-well tissue culture plate (Falcon 3075): BT474 10,000 cells/well, HN5 3,000 cells/well. The next day, compounds were diluted in DMEM containing […] gentamicin, at twice the final required concentration, from 10 mM stock solutions in DMSO. 100 μl/well of these dilutions were added to the 100 μL of media currently on the cell plates. Medium containing 0.6% DMSO was added to control wells. Compounds diluted in DMEM were added to all cell lines. The final concentration of DMSO in all wells was 0.3%. Cells were returned to the incubator (37° C., […]) for 3 days. Medium was then removed by aspiration. Cell biomass was estimated by staining cells with 90 μL/well methylene blue (Sigma M9140, 0.5% in 1:1 EtOH:H2O), and incubation at room temperature for at least 30 minutes. Stain was removed, and the plates rinsed by immersion in deionized H2O and air-dried. To release stain from the cells 100 μL of solubilization solution were added (1% N-lauroyl sarcosine, sodium salt, Sigma L5125, in PBS), and plates were shaken gently for about 30 minutes. Optical density at 620 nm was measured on a microplate reader. Percent inhibition of cell growth was calculated relative to vehicle-treated control wells. Concentration of compound that inhibits 50% of control cell growth (IC50) was interpolated using nonlinear regression (Levenberg-Marquardt) and the equation,
(§4) y=Vmax*(1−(x/(K+x)))+Y2, where “K” was equal to the IC50.

HN5 tumor cells [6] = assay: Method A: Methylene Blue Growth Inhibition Assay, HN5; type: cell-based; conditions: Homo sapiens, 72 h, 3 days
Protocol: as §3, §4

Colo205 tumor cells [7] = assay: Method A: Methylene Blue Growth Inhibition Assay, Colo205; type: cell-based; conditions: Homo sapiens, COLO 205, 72 h, 3 days
Protocol: as §3, §4

[8] = Method (A): Enzyme Mix incubated with compound at 20° C. for 1 hr, reaction started by adding Substrate Mix
[9] = Method (B): Substrate Mix added to compound first, reaction started by adding Enzyme Mix

T2 sequence (P00533 25-1210): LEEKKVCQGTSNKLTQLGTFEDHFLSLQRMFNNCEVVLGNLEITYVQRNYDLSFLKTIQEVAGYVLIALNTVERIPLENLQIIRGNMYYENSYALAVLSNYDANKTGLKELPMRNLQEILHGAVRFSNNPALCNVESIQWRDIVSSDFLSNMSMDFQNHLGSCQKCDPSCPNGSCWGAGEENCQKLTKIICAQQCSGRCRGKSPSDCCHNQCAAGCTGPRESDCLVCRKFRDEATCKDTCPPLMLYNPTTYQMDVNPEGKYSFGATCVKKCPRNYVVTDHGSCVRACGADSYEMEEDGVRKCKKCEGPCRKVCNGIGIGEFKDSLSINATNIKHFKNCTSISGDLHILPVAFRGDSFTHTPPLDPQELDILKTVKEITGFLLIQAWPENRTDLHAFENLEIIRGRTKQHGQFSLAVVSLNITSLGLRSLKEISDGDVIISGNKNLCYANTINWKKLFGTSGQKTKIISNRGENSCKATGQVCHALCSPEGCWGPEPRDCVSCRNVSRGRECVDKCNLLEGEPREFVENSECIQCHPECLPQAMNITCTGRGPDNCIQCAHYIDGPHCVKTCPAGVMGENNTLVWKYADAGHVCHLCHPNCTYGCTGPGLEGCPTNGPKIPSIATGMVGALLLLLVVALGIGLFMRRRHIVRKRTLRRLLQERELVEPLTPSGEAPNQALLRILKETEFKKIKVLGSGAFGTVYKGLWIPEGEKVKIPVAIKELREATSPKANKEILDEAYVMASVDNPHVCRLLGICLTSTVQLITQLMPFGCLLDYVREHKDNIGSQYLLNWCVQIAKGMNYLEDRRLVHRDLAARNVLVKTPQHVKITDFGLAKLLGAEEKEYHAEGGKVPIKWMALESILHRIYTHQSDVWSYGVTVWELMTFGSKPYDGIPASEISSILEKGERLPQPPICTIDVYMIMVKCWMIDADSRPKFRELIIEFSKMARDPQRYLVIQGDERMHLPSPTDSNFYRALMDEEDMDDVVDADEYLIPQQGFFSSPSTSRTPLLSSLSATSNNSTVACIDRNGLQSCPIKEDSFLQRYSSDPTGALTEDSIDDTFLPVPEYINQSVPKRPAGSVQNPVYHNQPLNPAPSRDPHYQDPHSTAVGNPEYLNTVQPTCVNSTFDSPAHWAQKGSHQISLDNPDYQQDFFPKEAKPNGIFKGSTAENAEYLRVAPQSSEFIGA
Chain of B-Raf (P15056 whole entry): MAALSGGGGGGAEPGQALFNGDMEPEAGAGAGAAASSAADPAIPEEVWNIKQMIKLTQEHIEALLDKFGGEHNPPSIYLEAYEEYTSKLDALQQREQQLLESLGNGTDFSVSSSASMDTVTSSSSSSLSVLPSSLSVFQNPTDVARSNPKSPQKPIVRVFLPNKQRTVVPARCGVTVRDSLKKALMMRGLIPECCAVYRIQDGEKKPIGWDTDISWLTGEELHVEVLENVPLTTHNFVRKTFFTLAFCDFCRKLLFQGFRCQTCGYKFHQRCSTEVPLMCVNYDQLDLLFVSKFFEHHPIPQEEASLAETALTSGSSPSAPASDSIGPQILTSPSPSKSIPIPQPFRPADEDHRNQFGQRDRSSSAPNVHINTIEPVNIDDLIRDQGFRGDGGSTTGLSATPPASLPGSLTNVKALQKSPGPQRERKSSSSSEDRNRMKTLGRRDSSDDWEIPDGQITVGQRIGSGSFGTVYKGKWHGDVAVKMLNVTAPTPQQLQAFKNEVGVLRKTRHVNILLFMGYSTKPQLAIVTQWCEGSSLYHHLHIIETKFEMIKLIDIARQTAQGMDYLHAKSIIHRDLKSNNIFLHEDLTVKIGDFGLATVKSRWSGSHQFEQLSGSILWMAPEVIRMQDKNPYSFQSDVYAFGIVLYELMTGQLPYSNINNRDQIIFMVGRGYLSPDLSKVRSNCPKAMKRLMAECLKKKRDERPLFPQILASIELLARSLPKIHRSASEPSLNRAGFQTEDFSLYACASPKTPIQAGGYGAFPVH
T1 sequence (P04626 23-1255): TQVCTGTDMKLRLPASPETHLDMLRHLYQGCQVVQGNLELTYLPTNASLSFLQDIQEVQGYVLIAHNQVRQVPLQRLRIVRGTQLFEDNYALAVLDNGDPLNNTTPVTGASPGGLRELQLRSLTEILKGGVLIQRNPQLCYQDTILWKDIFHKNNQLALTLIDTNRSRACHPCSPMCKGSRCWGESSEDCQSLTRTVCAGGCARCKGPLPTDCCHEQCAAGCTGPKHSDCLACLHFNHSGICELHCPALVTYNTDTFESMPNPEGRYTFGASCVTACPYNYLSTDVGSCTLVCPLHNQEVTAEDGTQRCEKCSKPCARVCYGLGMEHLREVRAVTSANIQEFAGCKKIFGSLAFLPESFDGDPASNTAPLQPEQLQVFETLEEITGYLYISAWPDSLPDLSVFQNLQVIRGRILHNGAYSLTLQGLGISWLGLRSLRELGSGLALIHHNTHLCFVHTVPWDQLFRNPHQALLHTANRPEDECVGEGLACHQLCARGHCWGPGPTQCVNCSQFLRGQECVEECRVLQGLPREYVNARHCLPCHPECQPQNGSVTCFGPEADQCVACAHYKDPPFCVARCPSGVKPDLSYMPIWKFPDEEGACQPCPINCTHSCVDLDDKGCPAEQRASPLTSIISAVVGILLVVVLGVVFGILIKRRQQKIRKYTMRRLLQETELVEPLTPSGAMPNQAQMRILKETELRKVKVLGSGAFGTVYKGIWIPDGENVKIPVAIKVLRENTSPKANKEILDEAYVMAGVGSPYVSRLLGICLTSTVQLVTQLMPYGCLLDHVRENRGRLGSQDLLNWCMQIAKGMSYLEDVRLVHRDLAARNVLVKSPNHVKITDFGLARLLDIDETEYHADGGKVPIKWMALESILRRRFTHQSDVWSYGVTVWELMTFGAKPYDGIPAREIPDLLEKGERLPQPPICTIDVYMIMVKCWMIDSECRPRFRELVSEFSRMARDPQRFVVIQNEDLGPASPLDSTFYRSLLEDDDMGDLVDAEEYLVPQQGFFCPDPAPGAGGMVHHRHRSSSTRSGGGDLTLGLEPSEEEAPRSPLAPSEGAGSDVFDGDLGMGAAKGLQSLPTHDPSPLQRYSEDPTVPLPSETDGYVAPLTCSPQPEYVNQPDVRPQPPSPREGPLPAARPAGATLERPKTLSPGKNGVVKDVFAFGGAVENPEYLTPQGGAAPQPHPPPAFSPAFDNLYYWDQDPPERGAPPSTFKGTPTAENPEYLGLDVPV

| SMILES | IC50 (ErbB2; [8]) [nM] | IC50 (SK-MEL-28 tumor cells) [nM] | IC50 (B-Raf) [nM] | IC50 (EGFR; [8]) [nM] | IC50 (Colo205 tumor cells [1]) [nM] | IC50 (Colo205 tumor cells [2]) [nM] | IC50 (BT474 tumor cells [3]) [nM] | IC50 (HN5 tumor cells [4]) [nM] | IC50 (BT474 tumor cells [5]) [nM] | IC50 (HN5 tumor cells [6]) [nM] | IC50 (Colo205 tumor cells [7]) [nM] | IC50 (ErbB2; [9]) [nM] | IC50 (EGFR; [9]) [nM] |
| --- | --- | --- | --- | --- | --- | --- | --- | --- | --- | --- | --- | --- | --- |
| Cc1cc(Nc2nccc(-c3sc(N(C)C)nc3-c3cccc(NC(=O)c4c(F)cccc4F)c3)n2)ccc1CC1CCNCC1 [Example 42, N-{3-[2-(Dimethylamino)-5-(2-{[3-methyl-4-(4-piperidinylmethyl)phenyl]amino}-4-pyrimidinyl)-1,3-thiazol-4-yl]phenyl}-2,6-difluorobenzamide] | < 100 | > 1000 | 100 to 1000 | < 100 | > 1000 | – | – | – | – | – | – | – | – |
| Cc1cc(-c2sc(N)nc2-c2cccc(NC(=O)c3c(F)cccc3F)c2)nc(Nc2cccc(OCCN(C)C)c2)n1 [Example 49, N-[3-(2-Amino-5-{2-[(3-{[2-(dimethylamino)ethyl]oxy}phenyl)amino]-6-methyl-4-pyrimidinyl}-1,3-thiazol-4-yl)phenyl]-2,6-difluorobenzamide] | 100 to 1000 | – | > 1000 | < 100 | – | > 1000 | 100 to 1000 | 100 to 1000 | – | – | – | – | – |
| Nc1nc(-c2cccc(NC(=O)C3CCCCC3)c2)c(-c2ccnc(Nc3cccc(-c4cnco4)c3)n2)s1 [Example 62, N-{3-[2-Amino-5-(2-{[3-(1,3-oxazol-5-yl)phenyl]amino}-4-pyrimidinyl)-1,3-thiazol-4-yl]phenyl}cyclohexanecarboxamide] | < 100 | – | – | < 100 | – | – | – | – | 100 to 1000 | < 100 | 100 to 1000 | – | – |
| CN(C)CCCNc1ccc(Nc2nccc(-c3sc(N)nc3-c3cccc(NC(=O)c4cccn4C)c3)n2)cc1F [Example 65, N-[3-(2-Amino-5-{2-[(4-{[3-(dimethylamino)propyl]amino}-3-fluorophenyl)amino]-4-pyrimidinyl}-1,3-thiazol-4-yl)phenyl]-1-methyl-1H-pyrrole-2-carboxamide] | < 100 | – | – | < 100 | – | – | – | – | < 100 | < 100 | 100 to 1000 | – | – |
| COCCOc1ccc(Nc2nccc(-c3sc(N)nc3-c3cccc(NC(=O)c4cccn4C)c3)n2)cc1F [Example 66, N-[3-(2-Amino-5-{2-[(3-fluoro-4-{[2-(methyloxy)ethyl]oxy}phenyl)amino]-4-pyrimidinyl}-1,3-thiazol-4-yl)phenyl]-1-methyl-1H-pyrrole-2-carboxamide] | < 100 | – | > 1000 | < 100 | – | – | – | – | < 100 | < 100 | 100 to 1000 | – | – |
| Nc1nc(-c2cccc(OCc3ccccc3)c2)c(-c2ccnc(Nc3cccc(-c4cnco4)c3)n2)s1 [Example 69, 4-(2-Amino-4-{3-[(phenylmethyl)oxy]phenyl}-1,3-thiazol-5-yl)-N-[3-(1,3-oxazol-5-yl)phenyl]-2-pyrimidinamine] | < 100 | – | > 1000 | < 100 | – | – | – | – | 100 to 1000 | 100 to 1000 | > 1000 | – | – |
| CN(C)CCOc1ccc(Nc2nccc(-c3sc(N)nc3-c3cccc(OCc4ccccc4)c3)n2)cc1Cl [Example 70, 4-(2-Amino-4-{3-[(phenylmethyl)oxy]phenyl}-1,3-thiazol-5-yl)-N-(3-chloro-4-{[2-(dimethylamino)ethyl]oxy}phenyl)-2-pyrimidinamine] | < 100 | – | – | < 100 | – | – | – | – | 100 to 1000 | 100 to 1000 | 100 to 1000 | – | – |
| Nc1nc(-c2cccc(OCc3ccccc3)c2)c(-c2ccnc(Nc3ccc4c(c3)CNCC4)n2)s1 [Example 71, N-[4-(2-Amino-4-{3-[(phenylmethyl)oxy]phenyl}-1,3-thiazol-5-yl)-2-pyrimidinyl]-1,2,3,4-tetrahydro-7-isoquinolinamine] | < 100 | – | – | < 100 | – | – | – | – | 100 to 1000 | 100 to 1000 | > 1000 | – | – |
| COc1ccc(Nc2nccc(-c3scnc3-c3cccc(NC(=O)c4c(F)cccc4F)c3)n2)cc1F [Example 87, 2,6-Difluoro-N-{3-[5-(2-{[3-fluoro-4-(methyloxy)phenyl]amino}-4-pyrimidinyl)-1,3-thiazol-4-yl]phenyl}benzamide] | – | – | – | – | – | – | – | – | 100 to 1000 | < 100 | > 1000 | 100 to 1000 | 100 to 1000 |
